# Test results: patent US11395492B2, “Antimicrobial and agrochemical compositions” (Myco Sciences Limited, priority 2015, dated 2022)
# Read-outs that look alike come from different tables or passages of the source.
# Columns and labels:
# Rhizoctonia solani [1] = experiment: Inhibition of fungal growth assay (radial growth on PDA)
# Experimental: Inhibition of fungal growth assay. The Rhizoctonia solani (R. solani) strain was isolated from sclerotia on the skin of a potato and was maintained in culture on potato dextrose agar (PDA) at room temperature (22° C.). To assess the effects of the compositions on fungal growth, 10 microliters of the test compositions diluted in sterile distilled water was placed in the wells of a 12-well tissue culture plate and 1 milliliter of PDA was added by pipette to each well. The plate was agitated to distribute the test composition evenly throughout the agar (distilled water alone was used as control) and then the agar was allowed to set. Plugs of agar containing fungal hyphae (3×3 millimeters) from an established fungal culture were cut out using a scalpel and inserted into holes cut into the centre of the agar in each well of the 12-well plate, which was then cultured at room temperature. To assess the effects of compositions on radial fungal growth, the diameter of the fungal hyphae was measured twice at a 90° angle using a ruler and the average diameter in millimeters was calculated. Concentrations of compositions required to inhibit the radial growth of R. solani by 50% (IC50) were determined graphically.
# Rhizoctonia solani [2] = test system: Rhizoctonia solani
# Experimental: To assess the effects of composition on fungal growth, 10 microliters of the test compositions diluted in sterile distilled water were placed in the wells of a 12-well tissue culture plate and 1 milliliter of PDA was added by pipette to each well. The plate was agitated to distribute the test composition evenly throughout the agar (distilled water alone was used as control) and then the agar was allowed to set. Plugs of agar containing fungal hyphae (3×3 millimeters) from an established fungal culture were cut out using a scalpel and inserted into holes cut into the centre of the agar in each well of the 12-well plate, which was then cultured at room temperature (22° C.). To assess the effects of compositions on radial fungal growth, the diameter the fungal hyphae was measured twice at a 90° angle using a ruler and the average diameter in millimeters was calculated. If no fungal growth could be detected by eye, the cultures were observed by phase microscopy (40×) to confirm that there was no growth (NG) as judged by visual examination.
# To assess the effects of compounds and compositions on sclerotia formation, the R. solani cultures were examined daily and radial fungal growth was measured until the cultures were confluent after which time the development of white (immature) sclerotia and mature (black pigmented) sclerotia was noted and the number of mature sclerotia was counted on day 10 of culture.
# [3] = pH of diluted compositions and components; type: physicochemical; conditions: 1% suspension in water
structure (smiles),measurement,setting,value
"O=[PH]([O-])O.[K+] [Potassium phosphite, potassium phosphite]",IC50 values with R. solani (fungal growth),Rhizoctonia solani [1],~400 µg/mL
same,Day 1 growth in mm,Rhizoctonia solani [2]; 10 mg/L (Table 9),19 mm
same,Day black SCL 1st seen,Rhizoctonia solani [2]; 10 mg/L (Table 9),5
same,Day growth confluent,Rhizoctonia solani [2]; 10 mg/L (Table 9),2
same,Day white SCL 1st seen,Rhizoctonia solani [2]; 10 mg/L (Table 9),3
same,No. black SCL on day 10,Rhizoctonia solani [2]; 10 mg/L (Table 9),9
same,Day 1 growth in mm,Rhizoctonia solani [2]; 20 mg/L (Table 9),19 mm
same,Day black SCL 1st seen,Rhizoctonia solani [2]; 20 mg/L (Table 9),7
same,Day growth confluent,Rhizoctonia solani [2]; 20 mg/L (Table 9),2
same,Day white SCL 1st seen,Rhizoctonia solani [2]; 20 mg/L (Table 9),4
same,No. black SCL on day 10,Rhizoctonia solani [2]; 20 mg/L (Table 9),2
same,Day 1 growth in mm,Rhizoctonia solani [2]; 40 mg/L (Table 9),19 mm
same,Day growth confluent,Rhizoctonia solani [2]; 40 mg/L (Table 9),2
same,No. black SCL on day 10,Rhizoctonia solani [2]; 40 mg/L (Table 9),0
same,Day 1 growth in mm,Rhizoctonia solani [2]; 80 mg/L (Table 9),18 mm
same,Day growth confluent,Rhizoctonia solani [2]; 80 mg/L (Table 9),2
same,No. black SCL on day 10,Rhizoctonia solani [2]; 80 mg/L (Table 9),0
same,Day 1 growth in mm,Rhizoctonia solani [2]; 160 mg/L (Table 9),15 mm
same,Day growth confluent,Rhizoctonia solani [2]; 160 mg/L (Table 9),3
same,No. black SCL on day 10,Rhizoctonia solani [2]; 160 mg/L (Table 9),0
"[Cl-].[Cu+2].[Cu+2].[OH-].[OH-].[OH-] [CuOCl-TP, copper oxychloride]",IC50 (% of stock solution) on growth of R. solani,"Rhizoctonia solani [1]; potato dextrose agar, 24 hour culture at 22° C.",1.8 % of stock solution
same,pH of a 1% suspension in water,[3],6.2
"NCP(=O)(O)O [AMPA, aminomethyl phosphonic acid]",Day 1 growth in mm,Rhizoctonia solani [2]; 0.1 g/L (Table 11),20 mm
same,Day black SCL 1st seen,Rhizoctonia solani [2]; 0.1 g/L (Table 11),5
same,Day growth confluent,Rhizoctonia solani [2]; 0.1 g/L (Table 11),2
same,Day white SCL 1st seen,Rhizoctonia solani [2]; 0.1 g/L (Table 11),3
same,No. black SCL on day 10,Rhizoctonia solani [2]; 0.1 g/L (Table 11),>20
same,Day 1 growth in mm,Rhizoctonia solani [2]; 0.3 g/L (Table 11),19 mm
same,Day black SCL 1st seen,Rhizoctonia solani [2]; 0.3 g/L (Table 11),8
same,Day growth confluent,Rhizoctonia solani [2]; 0.3 g/L (Table 11),2
same,Day white SCL 1st seen,Rhizoctonia solani [2]; 0.3 g/L (Table 11),3
same,No. black SCL on day 10,Rhizoctonia solani [2]; 0.3 g/L (Table 11),>20
same,Day 1 growth in mm,Rhizoctonia solani [2]; 1 g/L (Table 11),17 mm
same,Day black SCL 1st seen,Rhizoctonia solani [2]; 1 g/L (Table 11),9
same,Day growth confluent,Rhizoctonia solani [2]; 1 g/L (Table 11),2
same,Day white SCL 1st seen,Rhizoctonia solani [2]; 1 g/L (Table 11),5
same,No. black SCL on day 10,Rhizoctonia solani [2]; 1 g/L (Table 11),5
"O=C(O)CNCP(=O)(O)O [Glyphosate, 2-[(phosphonomethyl)amino] acetic acid]",Day 1 growth in mm,Rhizoctonia solani [2]; 0.27 g/L (Table 11),20 mm
same,Day black SCL 1st seen,Rhizoctonia solani [2]; 0.27 g/L (Table 11),5
same,Day growth confluent,Rhizoctonia solani [2]; 0.27 g/L (Table 11),2
same,Day white SCL 1st seen,Rhizoctonia solani [2]; 0.27 g/L (Table 11),3
same,No. black SCL on day 10,Rhizoctonia solani [2]; 0.27 g/L (Table 11),>20
same,Day 1 growth in mm,Rhizoctonia solani [2]; 0.8 g/L (Table 11),14 mm
same,Day black SCL 1st seen,Rhizoctonia solani [2]; 0.8 g/L (Table 11),6
same,Day growth confluent,Rhizoctonia solani [2]; 0.8 g/L (Table 11),2
same,Day white SCL 1st seen,Rhizoctonia solani [2]; 0.8 g/L (Table 11),3
same,No. black SCL on day 10,Rhizoctonia solani [2]; 0.8 g/L (Table 11),8
same,Day 1 growth in mm,Rhizoctonia solani [2]; 2.7 g/L (Table 11),8 mm
same,Day black SCL 1st seen,Rhizoctonia solani [2]; 2.7 g/L (Table 11),8
same,Day growth confluent,Rhizoctonia solani [2]; 2.7 g/L (Table 11),6
same,Day white SCL 1st seen,Rhizoctonia solani [2]; 2.7 g/L (Table 11),6
same,No. black SCL on day 10,Rhizoctonia solani [2]; 2.7 g/L (Table 11),4
same,Day 1 growth in mm,Rhizoctonia solani [2]; 8 g/L (Table 11),6 mm
same,No. black SCL on day 10,Rhizoctonia solani [2]; 8 g/L (Table 11),0
